Test results from PMC6925343 (ACS chemical biology, 2019).

Key:
[1] = tested on: RANBP3 Ser58/Ser126 phosphorylation; test: RANBP3 Ser58/Ser126 phosphorylation in CSA treated HeLa cells, Western blot; type: cell-based; conditions: CSA 45 min, anti-pSer58/pSer126-RANBP3 antibody
[2] = tested on: SMAD2 localization in HeLa cells; conditions: CSA 45 min, n = 90 cells, three independent replicates

Cyclosporine A [CSA]
increase of Ser58/Ser126 phosphorylation of RANBP3 [1]: approximately 2 fold
total SMAD2 levels [2]: not changed
